Experimental data reported in patent publication US11078197B2, “5-membered and bicyclic heterocyclic amides as inhibitors of rock” (BRISTOL-MYERS SQUIBB COMPANY, priority 2017, dated 2021).

Biological target: ROCK2 (Homo sapiens (Human), UniProt O75116)
Assay: ROCK2 assay (peptide phosphorylation, LABCHIP 3000 Reader)
Format: biochemical
Settings: 5 μM ATP, 1.5 μM peptide substrate, dose-response
Method: After incubation, the reaction was terminated by the addition of EDTA and the phosphorylated and non-phosphorylated peptides separated using a LABCHIP®3000 Reader (Caliper Life Sciences). […] Compounds were tested in dose-response format, and the inhibition of kinase activity was calculated at each concentration of compound. […] Representative Examples were tested in the ROCK2 assay described above and found having ROCK2 inhibitory activity.

ROCK2, sequence (O75116 whole entry, species assumed): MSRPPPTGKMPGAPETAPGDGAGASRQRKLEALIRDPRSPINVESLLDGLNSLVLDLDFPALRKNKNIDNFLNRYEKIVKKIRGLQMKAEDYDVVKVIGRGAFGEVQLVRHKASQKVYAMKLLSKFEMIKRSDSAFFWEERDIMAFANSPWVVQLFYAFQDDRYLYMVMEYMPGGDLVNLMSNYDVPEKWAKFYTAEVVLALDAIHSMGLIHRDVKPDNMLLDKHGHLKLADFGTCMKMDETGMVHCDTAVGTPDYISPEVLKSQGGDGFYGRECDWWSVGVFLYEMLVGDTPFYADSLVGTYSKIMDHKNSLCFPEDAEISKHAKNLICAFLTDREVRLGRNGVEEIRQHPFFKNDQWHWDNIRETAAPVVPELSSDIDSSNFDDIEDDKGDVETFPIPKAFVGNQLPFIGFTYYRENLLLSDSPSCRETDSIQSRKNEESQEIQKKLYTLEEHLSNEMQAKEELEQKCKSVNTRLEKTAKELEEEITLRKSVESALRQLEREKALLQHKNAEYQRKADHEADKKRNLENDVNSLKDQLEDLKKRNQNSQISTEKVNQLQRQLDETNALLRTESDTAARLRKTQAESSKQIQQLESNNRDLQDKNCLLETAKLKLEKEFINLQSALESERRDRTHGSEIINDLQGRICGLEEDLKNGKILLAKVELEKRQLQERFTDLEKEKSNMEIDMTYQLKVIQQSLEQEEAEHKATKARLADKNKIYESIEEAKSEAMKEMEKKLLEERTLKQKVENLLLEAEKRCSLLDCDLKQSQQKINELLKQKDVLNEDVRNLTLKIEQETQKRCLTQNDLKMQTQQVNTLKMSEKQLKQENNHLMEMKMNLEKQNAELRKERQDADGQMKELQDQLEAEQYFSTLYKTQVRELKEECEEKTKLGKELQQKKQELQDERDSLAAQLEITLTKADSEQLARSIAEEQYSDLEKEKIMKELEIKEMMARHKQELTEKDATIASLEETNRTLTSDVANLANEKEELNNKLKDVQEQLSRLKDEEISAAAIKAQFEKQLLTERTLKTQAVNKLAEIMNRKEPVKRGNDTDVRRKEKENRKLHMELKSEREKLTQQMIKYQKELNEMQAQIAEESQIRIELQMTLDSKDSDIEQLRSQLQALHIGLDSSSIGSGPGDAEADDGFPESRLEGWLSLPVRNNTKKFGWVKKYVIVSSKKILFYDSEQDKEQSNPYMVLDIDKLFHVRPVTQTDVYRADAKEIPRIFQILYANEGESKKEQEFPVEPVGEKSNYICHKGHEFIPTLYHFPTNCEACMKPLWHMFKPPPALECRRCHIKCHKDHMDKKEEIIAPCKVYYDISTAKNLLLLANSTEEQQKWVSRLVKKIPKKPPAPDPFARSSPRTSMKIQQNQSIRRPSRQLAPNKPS

Compound | IC50 [nM]
Cc1nc(O[C@H]2C[C@@]3(C[C@H](NC(=O)c4cnn5cc(N6CC(CO)(CCl)C6)ccc45)C3)C2)c(C(N)=O)s1 (stereo partly drawn) [Example 34, 4-[((aR)-6-{6-[3-(chloromethyl)-3-(hydroxymethyl)azetidin-1-yl]pyrazolo[1,5-a]pyridine-3-amido}spiro[3.3]heptan-2-yl)oxy]-2-methyl-1,3-thiazole-5-carboxamide] | 17.2
CC(C)(O)COc1ccc2c(C(=O)NC3CC4(C3)CC(Oc3nc5c(cc3C(N)=O)CCCN5)C4)cnn2c1C1CC1 [Example 8, 2-(((aR)-6-(7-Cyclopropyl-6-(2-hydroxy-2-methylpropoxy)pyrazolo[1,5-a]pyridine-3-carboxamido)spiro[3.3]heptan-2-yl)oxy)-5,6,7,8-tetrahydro-1,8-naphthyridine-3-carboxamide] | 5.4
N#CCc1cccc(C(=O)N[C@H]2C[C@]3(C2)C[C@H](Oc2nc4c(cc2C(N)=O)COCC4)C3)c1 (stereo partly drawn) [Example 88, 2-{[(aR)-6-[3-(cyanomethyl)benzamido]spiro[3.3]heptan-2-yl]oxy}-5H,7H,8H-pyrano[4,3-b]pyridine-3-carboxamide] | 35
Cn1ncc2cc(C(N)=O)c(O[C@H]3C[C@@]4(C[C@H](NC(=O)c5cccc(C#N)c5)C4)C3)nc21 (stereo partly drawn) [Example 102, 1-methyl-6-{[(aR)-6-(3-cyanobenzamido)spiro[3.3]heptan-2-yl]oxy}-1H-pyrazolo[3,4-b]pyridine-5-carboxamide] | 8
CC(C)(O)COc1ccc2c(C(=O)N[C@H]3C[C@]4(C3)C[C@H](Oc3nn5ccccc5c3C(N)=O)C4)nn(C(F)F)c2c1 (some centres unmarked) [Example 121, 1-(difluoromethyl)-6-(2-hydroxy-2-methylpropoxy)-N-[(4s)-6-({3-carbamoylpyrazolo[1,5-a]pyridin-2-yl}oxy)spiro[3.3]heptan-2-yl]-1H-indazole-3-carboxamide] | 18.3
NC(=O)c1sc(C2CC2)nc1O[C@H]1CC2(C[C@H](NC(=O)c3cnn4cc(OCC(F)(F)F)ccc34)C2)C1 (stereo partly drawn) [Example 62, 2-cyclopropyl-4-{[(aR)-6-[6-(2,2,2-trifluoroethoxy)pyrazolo [1,5-a]pyridine-3-amido]spiro[3.3]heptan-2-yl]oxy}-1,3-thiazole-5-carboxamide] | 11.6
CC(C)(O)COc1ccc2c(C(=O)N[C@H]3C[C@]4(C3)C[C@H](Oc3nc5ccsc5cc3C(N)=O)C4)cnn2c1 (stereo partly drawn) [Example 84, 6-(2-hydroxy-2-methylpropoxy)-N-[(aR)-6-({6-carbamoylthieno[3,2-b]pyridin-5-yl}oxy)spiro[3.3]heptan-2-yl]pyrazolo[1,5-a]pyridine-3-carboxamide] | 2.2
Cc1nc(O[C@H]2C[C@@]3(C[C@H](NC(=O)c4cnn5c(C6CC6)c(OCC(C)(C)O)ccc45)C3)C2)c(C(N)=O)s1 (stereo partly drawn) [Example 22, 4-({(aR)-6-[7-cyclopropyl-6-(2-hydroxy-2-methylpropoxy)pyrazolo [1,5-a]pyridine-3-amido]spiro[3.3]heptan-2-yl}oxy)-2-methyl-1,3-thiazole-5-carboxamide] | 7
Cn1ncc2cc(C(N)=O)c(O[C@H]3C[C@@]4(C[C@H](NC(=O)c5nnc(-c6ccc(F)cc6F)s5)C4)C3)nc21 (some centres unmarked) [Example 151, 5-(2,4-difluorophenyl)-N-[(4s)-6-({5-carbamoyl-1-methyl-1H-pyrazolo[3,4-b]pyridin-6-yl}oxy)spiro[3.3]heptan-2-yl]-1,3,4-thiadiazole-2-carboxamide] | 13.6
Cc1c(C(=O)N[C@H]2C[C@]3(C2)C[C@H](Oc2nn(C(F)F)cc2C(N)=O)C3)cnn1-c1ccc(Cl)cc1 (stereo partly drawn) [Example 55, 1-(4-chlorophenyl)-5-methyl-N-[(aR)-6-{[4-carbamoyl-1-(difluoromethyl)-1H-pyrazol-3-yl]oxy}spiro[3.3]heptan-2-yl]-1H-pyrazole-4-carboxamide] | 78.3
CC(C)CNc1nnc(C(=O)N[C@H]2C[C@]3(C2)C[C@H](Oc2nc4c(cc2C(N)=O)COCC4)C3)s1 (some centres unmarked) [Example 142, 5-[(2-methylpropyl)amino]-N-[(4s)-6-({3-carbamoyl-5H,7H,8H-pyrano[4,3-b]pyridin-2-yl}oxy)spiro[3.3]heptan-2-yl]-1,3,4-thiadiazole-2-carboxamide] | 60.3

The next lines start with the values.

IC50 [nM] | Compound
42.7 | [H][C@]1(Oc2nc(C)sc2C(N)=O)C[C@]2(C[C@@H](NC(=O)c3cnn(-c4ccc(Cl)cc4)c3C)C2)C1 (stereo partly drawn) [Example 1, 4-(((aR)-6-(1-(4-Chlorophenyl)-5-methyl-1H-pyrazole-4-carboxamido)spiro[3.3]heptan-2-yl)oxy)-2-methylthiazole-5-carboxamide]
7.1 | Cc1c(C(=O)N[C@H]2C[C@]3(C2)C[C@H](Oc2nc4c(cnn4C)cc2C(N)=O)C3)cnn1-c1ccc(S(C)(=O)=O)cc1 (some centres unmarked) [Example 150, 1-(4-methanesulfonylphenyl)-5-methyl-N-[(4s)-6-({5-carbamoyl-1-methyl-1H-pyrazolo[3,4-b]pyridin-6-yl}oxy)spiro[3.3]heptan-2-yl]-1H-pyrazole-4-carboxamide]
162 | Cc1sc2cc(C(N)=O)c(O[C@H]3CC4(C[C@H](NC(=O)c5nnc(NCC(C)C)s5)C4)C3)nc2c1C (some centres unmarked) [Example 162, 5-[(2-methylpropyl)amino]-N-[(4s)-6-({6-carbamoyl-2,3-dimethylthieno[3,2-b]pyridin-5-yl}oxy)spiro[3.3]heptan-2-yl]-1,3,4-thiadiazole-2-carboxamide]
204 | NC(=O)c1cn(C2CC2)nc1O[C@H]1C[C@@]2(C[C@H](NC(=O)c3nc(C(F)(F)F)n4ccccc34)C2)C1 (stereo partly drawn) [Example 58, 1-cyclopropyl-3-{[(aR)-6-[3-(trifluoromethyl)imidazo[1,5-a]pyridine-1-amido]spiro[3.3]heptan-2-yl]oxy}-1H-pyrazole-4-carboxamide]
330 | 2-cyclopropyl-4- {[(aR)-6-{4-[(1R)- 1-hydroxyethyl]-2,5- dioxoimidazolidin-1- yl}spiro[3.3]heptan- 2-yl]oxy}-1,3- thiazole-5- carboxamide [Example 109]
114 | COc1ccc(C(=O)N[C@H]2C[C@]3(C2)C[C@H](Oc2nc4c(cc2C(N)=O)COCC4)C3)cc1C#N (stereo partly drawn) [Example 90, 2-{[(aR)-6-(3-cyano-4-methoxybenzamido)spiro[3.3]heptan-2-yl]oxy}-5H,7H,8H-pyrano[4,3-b]pyridine-3-carboxamide]
68.8 | [H][C@]1(Oc2nc(C3CC3)sc2C(N)=O)C[C@]2(C[C@@H](NC(=O)c3nc(C(F)(F)F)n4cc(-n5ccccc5=O)ccc34)C2)C1 (stereo partly drawn) [Example 3, 2-Cyclopropyl-4-(((aR)-6-(6-(2-oxopyridin-1(2H)-yl)-3-(trifluoromethyl)imidazo[1,5-a]pyridine-1-carboxamido)spiro[3.3]heptan-2-yl)oxy)thiazole-5-carboxamide]
36.6 | NC(=O)c1cc2c(nc1O[C@H]1C[C@@]3(C[C@H](NC(=O)c4cnc5ccc(F)cc5c4)C3)C1)CCOC2 (stereo partly drawn) [Example 100, 6-fluoro-N-[(aR)-6-({3-carbamoyl-5H,7H,8H-pyrano[4,3-b]pyridin-2-yl}oxy)spiro[3.3]heptan-2-yl]quinoline-3-carboxamide]
2400 | CC(C)(O)COc1ccc2c(C(=O)N[C@H]3C[C@]4(C3)C[C@H](Oc3c(C(N)=O)cnn3C(F)F)C4)cnn2c1C1CC1 (stereo partly drawn) [Example 39, 5-({(aR)-6-[7-cyclopropyl-6-(2-hydroxy-2-methylpropoxy)pyrazolo [1,5-a]pyridine-3-amido]spiro[3.3]heptan-2-yl}oxy)-1-(difluoromethyl)-1H-pyrazole-4-carboxamide]
